Consider 65 compounds from a melting point compilation (Tetko et al.; mined from patent text by program, amines drawn as free bases though some values may be those of a salt).

Molecules are shown by their SMILES.

In turn, `CCOC(=O)c1ncn2c1CN(Cc1ccc(OC)cc1OC)C(=O)c1c(Cl)cccc1-2` returned a melting point of 129 to 130 °C.
As for `CC(C)(Cc1ccccc1)OC(=O)Nc1ccc(-c2ncn(-c3ccc(OC(F)(F)F)cc3)n2)cc1`, the melting point was in the range of 153 to 155 °C.
With `COc1cc(C(=O)NCC2c3ccccc3CCN2CCO)cc(OC)c1OC` (stereo not given), the melting point lay within 138 to 140 °C.
Consider `O=c1nc(-c2cccc(OCc3ccccc3)n2)sc2ccccc12`, for which the melting point came to 241 °C.
The compound `O=Cc1ccc2cc3ccccc3cc2c1` displayed a melting point of 201 to 202 °C.
As to `CCCCCCCCCC(=O)c1cc(OC)c(Cl)cc1OC`, the melting point fell in the range of 53 to 54 °C.
In the case of `CNC(=O)c1cc(Br)cc(F)c1Nc1nc(Cl)ncc1Cl` it was 246 to 249 °C; in that of `COC(=O)COc1cccc(-c2ccc(Cl)cc2)n1`, 60 to 63 °C.
In turn, `CCOC(=O)c1ncc2[nH]c3ccc(N4CCCS4(=O)=O)cc3c2c1C` came in with a melting point of 230 °C.
In the case of `O=C1Nc2ccc([N+](=O)[O-])cc2C12OCCCO2` it was 155 to 168 °C; in that of `Clc1ccc2[nH]c(-c3ccccc3)cc2c1`, 195 to 196 °C.
On to `COC(=O)C(Cc1ccc(OCCn2ccc3cccnc32)cc1)C(=O)O` (stereo not given), for which the melting point is 120 to 122 °C.
For `Cc1cc(O)ccc1Oc1ccccc1`, the melting point was 96 to 99 °C.
The compound `CC(C)[C@H](NC(=O)Oc1ccccc1)C(=O)O` showed a melting point of 84.5 to 85.5 °C.
The compound `CCOc1cnc2nc(S(=O)(=O)Cl)nn2c1` showed a melting point of 134 to 137 °C.
For the compound `Oc1ccc(CC2NCCC3=C2CCCC3)cc1` (single isomer, unassigned; (+)), the melting point was 154 to 156 °C.
The compound `CCOC(=O)CNC(=O)Oc1c(Cl)cc(Cl)c2cccnc12` returned a melting point of 120 °C.
In turn, `COc1cccc(-c2ccc(C(=O)NCCOc3ccc(CC(Oc4ccc(C(C)C)cc4)C(=O)O)cc3)cc2)c1` (stereo not given) registered a melting point of 138 to 139 °C.
For `Cn1cc(C2=CCN(CCCN3c4cccc5cccc(c45)S3(=O)=O)CC2)c2ccccc21`, the melting point came to 161 °C.
Compound `CC1CC(N)=NN1c1cncc(Cl)n1` (stereo not given) returned a melting point of 147 to 148 °C.
The compound `O=C1N(c2cc(Cl)nc(Cl)c2)C(=O)[C@@]2(Cc3ccc(OC(F)(F)F)cc3)C[C@H](n3cccc3)CN12` showed a melting point of 130 °C.
In turn, `O=C(NC1CCC(CCN2CCN(c3nccc4c3OCC4)CC2)CC1)C1CCCO1` (racemic) showed a melting point of 145 °C.
For `O=C(O)c1ccc(OCCF)cc1`, the melting point came to 135 °C.
`COC(=O)Cc1nc(-c2ccccc2)c(-c2ccccc2)o1`: the melting point was in the range of 87 to 91 °C.
In the case of `CCCn1c(=O)c2[nH]c(/C=C/c3ccc(OC)c(OC)c3OC)nc2n(CCC)c1=O`, the melting point was 246 to 247 °C.
Take `Cc1ccc(OCCCl)c(C(N)=O)c1`: the melting point fell in the range of 111 to 113 °C.
For `CC(C)(C)[C@H](N)C(N)=O` the value was 104 to 105 °C; for `COc1cc(OC)c(C)c(C(=O)OCC(Cl)(Cl)Cl)c1C`, 129 °C; for `CCN1C(=O)CC(C)(C)c2ccc(C(=O)O)cc21`, 202 to 204 °C.
On to `CC(C)c1cc2ncsc2cc1SC1=C(O)CC(CCc2ccc(F)cc2)(C(C)C)OC1=O` (stereo not given), for which the melting point fell in the range of 104 to 105 °C.
The compound `CCC(C(=O)N(C)C)n1cc(C)c(-c2cccs2)n1` (stereo not given) displayed a melting point of 83 to 85 °C.
`CCc1nnc2n1-c1ccc(Cl)cc1C(c1ccccc1)=NC2` came in with a melting point of 229 to 230 °C.
In the case of `COC(=O)C1=Cc2cc(OCc3ccc(Cl)cc3)ccc2S(=O)(=O)CC1` it was 130 to 133 °C; in that of `CC(C)(C)OC(=O)NCc1cccc(Nc2n[nH]c3ncnc(Nc4cccc(Cl)c4)c23)c1`, 147 to 148 °C.
Consider `CSc1nc(Cl)c(-c2c(F)cc(F)cc2F)c(NC(C)C)n1`, for which the melting point was in the range of 112 to 116 °C.
In turn, `CCOC(=O)c1cccc(C=C(C(=O)O)c2ccccc2)c1` gave a melting point of 139 to 140 °C.
With `CC(C)NC(=O)[C@@H]1CCCN1C(=O)[C@H](C)NC(=O)OCc1ccccc1`, the melting point lay within 124 to 126 °C.
For `O=c1[nH]c(=O)n(C2OC(CBr)C(O)C2O)cc1C=CBr` (stereo not given), the melting point came out at 201 °C.
`COc1cc2ncnc(N3CCC(CN4C=CC(C)=NS4(=O)=O)CC3)c2cc1OC` returned a melting point of 203 to 207 °C.
`COc1ccc(C(=NOC(C)=O)c2ccc(Cl)cc2)c(O)c1` showed a melting point of 167 °C.
For `CCNC(=S)C1=CC(CF)(CF)Oc2ccc(C(F)(F)F)cc21` the value was 65 to 67 °C; for `COc1ccc(-c2c3c(cc4ccc(OCc5ccccc5)cc24)C(=O)NC3=O)cc1`, 208 to 210 °C; for `OC1CSC(Oc2cncc(-c3cc4ccccc4s3)c2)C(O)C1O` (stereo not given), 235 °C.
Consider `CCOC(=O)C(Oc1ccc(Cl)cc1)C(C)C` (stereo not given), for which the melting point was 88 to 91 °C.
`COc1ccc(COc2ccc(C(=O)Nc3ccc4cc(CN5CCCC5)cnc4c3C)cc2)cc1` showed a melting point of 192 to 193 °C.
`CN(CCCCOCC(=O)O)c1nnc(-c2ccccc2)c(-c2ccccc2)n1`: the melting point was 108 to 110 °C.
The compound `O=C1C2CCCCC2C(=O)N1CCS` (stereo not given) came in with a melting point of 79 to 80 °C.
As to `COc1ccc(-c2ccnc(-c3ccccc3)c2)cc1F`, the melting point came out at 84 °C.
`Clc1ccc(C(c2ccccc2)c2c(Cl)ncnc2Cl)c(Cl)c1` (stereo not given) gave a melting point of 138 to 139 °C.
`CN(C(=O)c1ccc(CS(=O)(=O)Cn2cnc3ccccc32)cc1)C1CCCCC1` displayed a melting point of 142 to 143 °C.
For `OC(CN1CCC(c2ccc(F)cc2)CC1)CN1CCC(c2ccc(F)cc2)CC1` the value was 79 to 80 °C.
`NC(=O)C1CCc2c(C(=O)c3ccccc3)cccc21` (stereo not given): the melting point fell in the range of 164 to 166 °C.
`CN(C)C(=O)c1c(-c2ccccc2)ccc2ccccc12`: the melting point lay in the range of 133 to 134 °C.
With `Cc1ccc(CC(CNC(=O)C(C)c2ccc(NS(C)(=O)=O)c(Cl)c2)COC(=O)C(C)(C)C)cc1C` (stereo not given), the melting point lay in the range of 127 to 129 °C.
`CN(C)C1(c2ccccc2)CCC(=CC(=O)NCCCc2c[nH]c3ccccc23)CC1` (stereo not given) showed a melting point of 85 to 87 °C.
For `Cc1cccc(CCOc2ccc(C#N)cc2)n1` the value was 66 to 67 °C; for `CC(=O)Oc1cccc2c(-c3ccccc3)c3cccc(OC(C)=O)c3c(OC(C)=O)c12`, 193 to 194 °C; for `COc1cc2c(c(Cl)c1Cl)C(=O)C(C)(c1ccc(Br)cc1)C2` (stereo not given), 200 to 203 °C.
`COC(=O)c1cc(Cl)c(C)c(Cl)c1` returned a melting point of 47.5 to 48.5 °C.
Regarding `Cc1cnc(Br)c(C#N)c1`, the melting point fell in the range of 109 to 111 °C.
`COc1cccc(Cc2ccc(-c3cnn4c(O)ncnc34)cc2)c1` displayed a melting point of 264 to 268 °C.
`O=C(O)c1cc(OCCCCCCOc2ccc(-c3ccccc3)cc2)ccc1OCc1ccccc1` came in with a melting point of 131 to 133 °C.
In turn, `CC1Nc2ccccc2N2CCc3cccc1c32` (stereo not given) showed a melting point of 127 to 134 °C.
The compound `COc1ccc(NC(=NC#N)NC(NC(=O)Cc2ccc(OC)c(OC)c2)C(C)(C)C)c(OC)n1` (stereo not given) registered a melting point of 162 to 163 °C.
With `OCc1nc(-c2ccc(Cl)cc2)co1`, the melting point was in the range of 68 to 71.5 °C.

The term melting point denotes the temperature, or range, at which the solid turns liquid.
